Results taken from ChEMBL document CHEMBL5338769, “Discovery of Norisoboldine Analogue III11 as a Novel and Potent Aryl Hydrocarbon Receptor Agonist for the Treatment of Ulcerative Colitis” (J Med Chem, 2023).
Calls of active or inactive are those of the source. No cut-off for these calls is given here.

Experiments:
[1] = target: T1, Aryl hydrocarbon receptor (Mus musculus, UniProt P30561); assay: Activation of AhR transcription in C57BL/6 mouse naive T cells assessed as increase in CYP1A1 mRNA expression at 1 uM by qRT-PCR analysis; type: cell-based; conditions: t cell
T1 sequence (P30561 whole entry): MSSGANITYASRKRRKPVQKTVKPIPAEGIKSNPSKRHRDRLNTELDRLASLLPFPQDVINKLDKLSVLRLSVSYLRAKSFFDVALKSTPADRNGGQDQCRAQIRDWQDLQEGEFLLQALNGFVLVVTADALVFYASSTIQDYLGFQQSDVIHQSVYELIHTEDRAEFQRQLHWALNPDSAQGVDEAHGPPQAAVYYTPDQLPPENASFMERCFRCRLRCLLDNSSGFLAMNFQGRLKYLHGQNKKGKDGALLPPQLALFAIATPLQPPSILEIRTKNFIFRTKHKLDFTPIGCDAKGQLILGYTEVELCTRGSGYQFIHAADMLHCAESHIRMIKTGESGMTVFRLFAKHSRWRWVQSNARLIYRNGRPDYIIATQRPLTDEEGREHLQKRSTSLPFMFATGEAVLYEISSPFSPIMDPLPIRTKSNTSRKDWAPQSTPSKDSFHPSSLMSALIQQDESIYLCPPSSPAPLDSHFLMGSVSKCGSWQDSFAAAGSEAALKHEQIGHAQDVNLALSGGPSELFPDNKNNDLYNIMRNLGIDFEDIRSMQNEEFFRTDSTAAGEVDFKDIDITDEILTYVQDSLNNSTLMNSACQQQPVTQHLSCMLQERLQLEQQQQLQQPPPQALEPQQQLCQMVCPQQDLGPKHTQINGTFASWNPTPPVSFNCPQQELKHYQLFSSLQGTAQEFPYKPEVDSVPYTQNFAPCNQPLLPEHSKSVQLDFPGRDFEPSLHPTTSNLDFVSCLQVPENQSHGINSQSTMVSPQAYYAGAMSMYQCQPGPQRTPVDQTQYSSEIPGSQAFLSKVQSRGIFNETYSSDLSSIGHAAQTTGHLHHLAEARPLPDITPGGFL

[2] = system: EL4; assay: Cytotoxicity against mouse EL4 cells assessed as inhibition of cell proliferation incubated for 72 hrs by MTT assay; type: functional, cell-based; conditions: for IC50: EL4, 72 h
[3] = target: T1, Aryl hydrocarbon receptor; assay: Activation of AhR transcription in C57BL/6 mouse naive T cells assessed as increase in UGT1A1 mRNA expression at 1 to 3 uM by qRT-PCR analysis; type: cell-based; conditions: t cell, dose 1-3 µM
[4] = target: T1, Aryl hydrocarbon receptor; assay: Activation of AhR transcription in C57BL/6 mouse naive T cells assessed as increase in AhRR mRNA expression at 1 to 3 uM by qRT-PCR analysis; type: cell-based; conditions: t cell, dose 1-3 µM
[5] = target: T1, Aryl hydrocarbon receptor; assay: Activation of AhR transcription in C57BL/6 mouse naive T cells assessed as increase in CYP1A1 mRNA expression at 1 to 3 uM by qRT-PCR analysis; type: cell-based; conditions: t cell, dose 1-3 µM
[6] = target: T1, Aryl hydrocarbon receptor; assay: Activation of AhR transcription in C57BL/6 mouse naive T cells assessed as increase in CYP1B1 mRNA expression at 1 to 3 uM by qRT-PCR analysis; type: cell-based; conditions: t cell, dose 1-3 µM
[7] = target: T1, Aryl hydrocarbon receptor; assay: Activation of AhR transcription in C57BL/6 mouse naive T cells assessed as increase in CYP1A1 mRNA expression at 1 to 3 uM measured after 72 hrs by qRT-PCR analysis; type: cell-based; conditions: t cell, dose 1-3 µM

| Structure (SMILES) | Activity [1] | IC50 [2] | Activity [7] | other results |
| --- | --- | --- | --- | --- |
| COc1cc2c(cc1O)CC1NCCc3cc(OC)c(OC)c-2c31 (stereo unspecified) | Active | 48.4 µM |  |  |
| COc1cc2c(cc1O)-c1c(OC)c(OC)cc3c1C(C2)NCC3 (stereo unspecified) |  | 36.9 µM |  | Activity [3]: Not Active; Activity [4]: Not Active; Activity [5]: Not Active; Activity [6]: Not Active |
| COc1cc2c3c(c1OC)-c1ccccc1CC3NCC2 (stereo unspecified) [NORNUCIFERINE] | Active | 26.2 µM |  |  |
| CO/C=C/c1cc(OCc2ccccc2)ccc1Br |  |  | Not Active |  |
| O=Cc1cc(O)ccc1Br |  |  | Not Active |  |
| COc1cc2c3c(c1)-c1ccc(OCc4ccccc4)cc1CC3N(C(=O)OCc1ccccc1)CC2 (stereo unspecified) |  |  | Not Active |  |
| COc1cccc(CCN)c1 |  |  | Not Active |  |
| Oc1ccc2c(c1)CC1NCCc3cccc-2c31 (stereo unspecified) |  |  |  | Activity [2]: inactive |
| COc1cc2c(cc1O)CC1c3c(cc(OC)c(O)c3-2)CCN1C(=O)OC(C)(C)C (stereo unspecified) | Active | 37 µM |  |  |
| COc1cc2c3c(c1OC)-c1cc(O)ccc1CC3NCC2 (stereo unspecified) |  | 25.9 µM |  | Activity [3]: Not Active; Activity [4]: Not Active; Activity [5]: Not Active; Activity [6]: Not Active |
